In article PMC8800018, “Discovery of novel selective PI3Kγ inhibitors through combining machine learning-based virtual screening with multiple protein structures and bio-evaluation” (Journal of Advanced Research, 2021):
Like-named read-outs stand apart in the source and are kept apart here.

Tests used:
[1] = molecular target: PI3Kγ (Homo sapiens, UniProt P48736); assay: ADP-Glo cell-free PI3K kinase activity assay; conditions: compounds 10 μM, initial screening, Fig. 3A
Description: (§6) The PI3K inhibitory activities of these pro-hits were all determined by ADP-Glo assay (Promega) [39]. […] 2.5 μL ATP/substrate mixture was added into the wells to initiate kinase reactions and incubated at room temperature for 1 h. Then, the reactions were stopped by addition of 5 μL ADP-Glo reagent and incubation for 120 min at room temperature. Before reading the luminescence signals of each well, 10 μL kinase detection buffer was added and incubated for 30 min at room temperature.

[2] = test system: U937 cells; assay: MTT cell proliferation assay; format: cell-based, human; conditions: 72 h, Fig. 3C, compared with IPI-145
From the text: (§1) The human cancer lines, MDA-MB-231, Patu8988, HepG2, A2780, LOVO, H1299, A549, HCT-8, SW480, 3AO, and MGC-803 were saved by the lab of Dr. Jian Jin, Jiangnan University. MCF-7 was purchased from the American Type Culture Collection (ATCC). Human malignant blood tumor cells, HL-60, U266, OPM2, OCI-My5, RPMI-8226, NCI-H929, Jurkat, LP-1, CCRF-CEM, K562, and U937, were provided by Dr. Xinliang Mao, Soochow University. MDA-MB-231, Patu8988, HepG2, A2780, LOVO, H1299, A549, HCT-8, SW480, 3AO, MGC-803, and MCF-7 were cultured in Dulbecco’s Modified Eagle Medium (DMEM, Gibco); U266, RPMI-8226, OPM2, OCI-My5, NCI-H929 and LP-1 were cultured in Iscove’s Modified Dulbecco’s Medium (IMDM. Gibco). The rest of cell lines were cultured in RPMI-1640 medium (Gibco). All mediums were supplemented with 10% fetal bovine serum (FBS, Gibco), 100 μg/mL penicillin and streptomycin, and all cells were maintained in a cell incubator with 5% CO2 at 37℃.
(§2) All cells were incubated in 96-well culture plates with 100 μL medium in each well. The concentration of solid cells (MDA-MB-231, MCF-7, Patu8988, HepG2, A2780, 3AO, LOVO, HCT-8, SW480, A549, H1299, and MGC-803) was 3,000/well and the concentration of suspension cells (HL-60, U266, OPM2, OCI-My5, RPMI-8226, NCI-H929, Jurkat, LP-1, CCRF-CEM, K562, and U937) was 7,500/well. […] The viability of the cancer cells was evaluated by Thiazolyl Blue (MTT) assay. 10 μL of 5 mg/mL MTT was added to each well and the plate was incubated at 37℃ for 4 h. Then, 100 μL MTT buffer was added to each well. After incubating the plate overnight, the absorbance of each well was measured at 550 nm by a microplate reader. All data were normalized to control groups (5 μL DMSO) and converted into the percent of living cells. All results were represented as the mean and standard deviation (SD) of the three independent measurements.

[3] = test system: K562 cells; assay: MTT cell proliferation assay; format: cell-based, human
From the text: as §1, §2

[4] = test system: RPMI-8226 cells; assay: MTT cell proliferation assay; format: cell-based, human; conditions: 72 h, Fig. 3C, compared with IPI-145
From the text: as §1, §2

[5] = test system: hematologic tumor cell lines (HL-60, Jurkat, CCRF-CEM, K562, OPM2, OCI-My5, LP-1, RPMI-8226, U937); assay: MTT cell proliferation assay, hematologic tumor cell lines, gradient of concentrations; format: cell-based, human; conditions: Fig. 3D
From the text: as §1
All cells were incubated in 96-well culture plates with 100 μL medium in each well. […] The viability of the cancer cells was evaluated by Thiazolyl Blue (MTT) assay. […] After incubating the plate overnight, the absorbance of each well was measured at 550 nm by a microplate reader. […]

[6] = molecular target: PI3Kδ (Homo sapiens, UniProt O00329); assay: ADP-Glo cell-free PI3K kinase activity assay
Chain of PI3Kδ (O00329 whole entry): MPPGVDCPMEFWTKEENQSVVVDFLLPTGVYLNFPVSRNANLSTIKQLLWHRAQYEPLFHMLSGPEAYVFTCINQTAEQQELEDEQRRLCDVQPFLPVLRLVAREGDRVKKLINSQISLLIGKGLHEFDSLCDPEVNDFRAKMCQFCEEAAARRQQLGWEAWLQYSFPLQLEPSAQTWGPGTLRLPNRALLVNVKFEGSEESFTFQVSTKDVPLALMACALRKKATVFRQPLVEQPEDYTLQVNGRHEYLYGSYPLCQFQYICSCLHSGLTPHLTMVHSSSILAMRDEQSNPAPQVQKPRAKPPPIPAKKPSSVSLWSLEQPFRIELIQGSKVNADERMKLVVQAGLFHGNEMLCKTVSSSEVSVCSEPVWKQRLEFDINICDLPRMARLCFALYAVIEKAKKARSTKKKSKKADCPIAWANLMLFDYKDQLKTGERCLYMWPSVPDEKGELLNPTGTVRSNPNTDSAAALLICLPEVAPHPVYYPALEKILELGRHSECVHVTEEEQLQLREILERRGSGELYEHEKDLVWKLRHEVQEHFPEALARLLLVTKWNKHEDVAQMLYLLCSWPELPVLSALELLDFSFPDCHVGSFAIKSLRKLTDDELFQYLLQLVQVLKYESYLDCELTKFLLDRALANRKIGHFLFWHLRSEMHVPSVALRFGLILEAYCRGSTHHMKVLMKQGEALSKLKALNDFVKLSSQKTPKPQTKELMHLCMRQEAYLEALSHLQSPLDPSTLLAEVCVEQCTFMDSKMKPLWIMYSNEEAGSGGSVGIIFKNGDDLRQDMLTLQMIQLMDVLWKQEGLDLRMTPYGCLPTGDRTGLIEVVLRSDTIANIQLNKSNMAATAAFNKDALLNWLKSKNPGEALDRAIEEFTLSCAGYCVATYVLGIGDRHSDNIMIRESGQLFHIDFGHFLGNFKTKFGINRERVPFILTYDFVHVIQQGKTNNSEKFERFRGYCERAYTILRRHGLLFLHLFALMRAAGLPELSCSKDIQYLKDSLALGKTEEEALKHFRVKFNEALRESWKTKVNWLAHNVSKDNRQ
Chain of PI3Kδ (P27986 whole entry partner): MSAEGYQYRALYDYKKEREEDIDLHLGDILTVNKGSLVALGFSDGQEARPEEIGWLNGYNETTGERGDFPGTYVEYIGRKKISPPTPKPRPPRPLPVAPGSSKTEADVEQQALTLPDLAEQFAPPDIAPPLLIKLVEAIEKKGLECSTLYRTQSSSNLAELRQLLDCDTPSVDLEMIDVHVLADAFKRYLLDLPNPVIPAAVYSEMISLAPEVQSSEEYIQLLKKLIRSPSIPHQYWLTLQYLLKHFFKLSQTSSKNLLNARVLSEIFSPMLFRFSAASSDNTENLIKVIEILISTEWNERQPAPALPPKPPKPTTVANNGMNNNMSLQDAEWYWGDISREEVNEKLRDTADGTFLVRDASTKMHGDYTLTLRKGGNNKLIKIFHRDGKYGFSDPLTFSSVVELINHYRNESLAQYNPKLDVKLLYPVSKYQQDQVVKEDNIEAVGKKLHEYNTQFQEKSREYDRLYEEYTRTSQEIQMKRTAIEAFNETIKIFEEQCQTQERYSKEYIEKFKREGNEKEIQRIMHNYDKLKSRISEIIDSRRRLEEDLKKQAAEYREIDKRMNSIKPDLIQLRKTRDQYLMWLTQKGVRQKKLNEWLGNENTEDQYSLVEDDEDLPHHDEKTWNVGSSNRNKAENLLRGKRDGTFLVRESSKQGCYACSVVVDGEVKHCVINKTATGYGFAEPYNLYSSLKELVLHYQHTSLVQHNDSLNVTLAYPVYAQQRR
Description: as §6

[7] = molecular target: PI3Kα (Homo sapiens, UniProt P42336); assay: ADP-Glo cell-free PI3K kinase activity assay
Chain of PI3Kα (P42336 whole entry): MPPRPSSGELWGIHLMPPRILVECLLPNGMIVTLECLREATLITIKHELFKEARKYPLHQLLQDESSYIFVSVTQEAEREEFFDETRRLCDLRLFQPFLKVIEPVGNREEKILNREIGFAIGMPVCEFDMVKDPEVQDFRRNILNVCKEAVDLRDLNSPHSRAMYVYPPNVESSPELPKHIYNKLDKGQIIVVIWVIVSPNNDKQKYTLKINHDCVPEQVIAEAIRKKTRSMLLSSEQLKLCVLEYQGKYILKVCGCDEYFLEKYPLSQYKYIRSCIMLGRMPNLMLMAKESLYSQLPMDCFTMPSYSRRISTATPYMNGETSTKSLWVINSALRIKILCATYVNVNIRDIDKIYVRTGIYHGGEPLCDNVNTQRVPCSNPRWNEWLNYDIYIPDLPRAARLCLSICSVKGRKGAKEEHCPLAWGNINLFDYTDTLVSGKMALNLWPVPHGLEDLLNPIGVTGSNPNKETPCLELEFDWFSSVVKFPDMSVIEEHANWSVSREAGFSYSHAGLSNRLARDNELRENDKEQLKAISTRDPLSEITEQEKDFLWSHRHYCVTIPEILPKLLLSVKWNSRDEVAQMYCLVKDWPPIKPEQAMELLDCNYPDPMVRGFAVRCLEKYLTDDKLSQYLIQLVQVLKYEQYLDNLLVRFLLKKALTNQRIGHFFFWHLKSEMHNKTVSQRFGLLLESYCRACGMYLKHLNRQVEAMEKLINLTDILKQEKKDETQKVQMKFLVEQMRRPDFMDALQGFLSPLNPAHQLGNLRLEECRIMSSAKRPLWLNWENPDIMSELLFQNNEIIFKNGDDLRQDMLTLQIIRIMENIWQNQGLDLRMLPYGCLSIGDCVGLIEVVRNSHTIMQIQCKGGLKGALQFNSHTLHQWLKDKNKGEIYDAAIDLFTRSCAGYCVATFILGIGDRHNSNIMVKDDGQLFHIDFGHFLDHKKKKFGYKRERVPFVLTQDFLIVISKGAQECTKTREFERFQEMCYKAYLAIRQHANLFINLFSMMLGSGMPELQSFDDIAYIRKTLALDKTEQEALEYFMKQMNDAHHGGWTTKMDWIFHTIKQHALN
Chain of PI3Kα (P27986 whole entry partner): as the sequence (P27986 whole entry partner) above
Description: as §6

[8] = test system: PARP and caspase-3 cleavage in RPMI-8226 cells; assay: Western Blot of apoptosis biomarkers; format: cell-based, human
Description: (§3) K562 and RPMI-8226 cells were cultured in 6-well plates with 1 × 10^6 cells per well and then treated with various concentrations of JN-KI3: 0, 2.5, 5, 10, and 20 μM. After 24 h, the cells of each well were collected and washed by PBS 3 times. The sedimentary cells were then incubated in an ice bath with 80 μL RIPA lysis buffer (Beyotime) for 20 min and then centrifuged at 12,000 rpm for 20 min. The supernatant was collected and its total concentration of protein was quantified using the BCA protein assay kit (Biosharp). Loading buffer (5 ×) was added to all protein samples prepared for Western Blot assays and boiled at 100℃ for 5 min.
(§4) The inhibitory situation of PI3K/AKT (Protein kinase B) signaling pathway was then determined by Western Blot assays. The SDS-polyacrylamide gel electrophoresis (PAGE) was used to separate the proteins. All protein samples and Protein Marker (Proteintech) were loaded onto an acrylamide gel and ran for 30 min at 80 V within the staking gel and for 1 h at 100 V with the separating gel. Then, the protein was electro-transferred onto an NC membrane at 100 V for 1 h. After that, the membrane was blocked in 5% skim milk diluted in TBST (1 ×) for 2 h and then the membrane was incubated with relevant primary antibody overnight at 4℃: Phospho-AKT (Thr308) (1 : 1000, cat# 13038 T; Cell Signaling Technology), Phospho-AKT (Ser473) (1: 1000, cat# 4060 T; Cell Signaling Technology), AKT (pan) (1: 1000, cat# 4691 T; Cell Signaling Technology), caspase-3 (1: 1000, cat# sc-56053; Santa Cruz Biotechnology), PARP (1: 1000, cat# 9542S; Cell Signaling Technology). GAPDH (1: 5000, cat#60004–1-Ig; Santa Cruz Biotechnology), After 10-min washing in TBST (1 ×) for 3 times, the membrane was incubated with relevant secondary antibody at room temperature on a shaker for 1 h. And the membrane was washed for 4 times in TBST again before being imaged.

[9] = test system: PARP and caspase-3 cleavage in K562 cells; assay: Western Blot of apoptosis biomarkers; format: cell-based, human
Description: as §3, §4

[10] = test system: AKT phosphorylation (Thr308, Ser473) in K562 cells; assay: Western Blot of PI3K/AKT signaling; format: cell-based, human
Description: as §3, §4

[11] = test system: AKT phosphorylation (Thr308, Ser473) in RPMI-8226 cells; assay: Western Blot of PI3K/AKT signaling; format: cell-based, human
Description: as §3, §4

[12] = test system: K562 cells; assay: Annexin V-FITC/PI flow cytometry apoptosis assay; format: cell-based, human; conditions: 24 h
Description: (§5) After being treated with JN-KI3 for 24 h, K562 and RPMI-8226 were stained with Annexin V-FITC/PI detection kit (Beyotime) and the apoptosis of the cells were detected using a flow cytometer (FACSCalibur, BD) following the instructions.

[13] = test system: RPMI-8226 cells; assay: Annexin V-FITC/PI flow cytometry apoptosis assay; format: cell-based, human; conditions: RPMI-8226, 10 μM, 24 h
Description: as §5

[14] = molecular target: PI3Kβ (Homo sapiens, UniProt P42338); assay: ADP-Glo cell-free PI3K kinase activity assay
Chain of PI3Kβ (P42338 whole entry): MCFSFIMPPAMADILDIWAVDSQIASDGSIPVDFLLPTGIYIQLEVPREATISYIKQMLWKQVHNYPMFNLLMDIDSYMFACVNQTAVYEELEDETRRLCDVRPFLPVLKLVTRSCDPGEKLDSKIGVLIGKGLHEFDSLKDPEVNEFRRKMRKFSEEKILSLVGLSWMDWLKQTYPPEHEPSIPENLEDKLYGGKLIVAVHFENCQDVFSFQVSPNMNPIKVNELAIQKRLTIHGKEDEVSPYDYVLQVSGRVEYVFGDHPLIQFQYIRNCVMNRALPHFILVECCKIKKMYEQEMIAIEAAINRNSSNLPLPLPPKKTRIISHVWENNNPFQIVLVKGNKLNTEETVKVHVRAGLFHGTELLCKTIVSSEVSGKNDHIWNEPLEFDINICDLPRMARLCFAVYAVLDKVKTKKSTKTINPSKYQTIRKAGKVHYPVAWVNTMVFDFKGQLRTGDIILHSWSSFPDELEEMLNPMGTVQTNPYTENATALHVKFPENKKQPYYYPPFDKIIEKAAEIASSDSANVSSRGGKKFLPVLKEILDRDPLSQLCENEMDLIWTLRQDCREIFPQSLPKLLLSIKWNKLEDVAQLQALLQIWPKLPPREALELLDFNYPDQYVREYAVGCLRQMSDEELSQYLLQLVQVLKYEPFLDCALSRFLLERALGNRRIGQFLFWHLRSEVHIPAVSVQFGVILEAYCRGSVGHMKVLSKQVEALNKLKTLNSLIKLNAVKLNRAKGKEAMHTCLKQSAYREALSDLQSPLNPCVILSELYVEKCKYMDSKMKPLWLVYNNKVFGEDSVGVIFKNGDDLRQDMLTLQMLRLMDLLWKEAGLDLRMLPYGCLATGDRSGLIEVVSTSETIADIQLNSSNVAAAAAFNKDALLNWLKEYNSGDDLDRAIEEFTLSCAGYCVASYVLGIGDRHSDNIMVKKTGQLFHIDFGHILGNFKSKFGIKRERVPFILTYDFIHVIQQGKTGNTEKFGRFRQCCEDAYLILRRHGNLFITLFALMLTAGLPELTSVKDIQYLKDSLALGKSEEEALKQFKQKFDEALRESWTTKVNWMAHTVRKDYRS
Chain of PI3Kβ (P27986 whole entry partner): as the sequence (P27986 whole entry partner) above
Description: as §6

Chain of PI3Kγ (P48736 whole entry): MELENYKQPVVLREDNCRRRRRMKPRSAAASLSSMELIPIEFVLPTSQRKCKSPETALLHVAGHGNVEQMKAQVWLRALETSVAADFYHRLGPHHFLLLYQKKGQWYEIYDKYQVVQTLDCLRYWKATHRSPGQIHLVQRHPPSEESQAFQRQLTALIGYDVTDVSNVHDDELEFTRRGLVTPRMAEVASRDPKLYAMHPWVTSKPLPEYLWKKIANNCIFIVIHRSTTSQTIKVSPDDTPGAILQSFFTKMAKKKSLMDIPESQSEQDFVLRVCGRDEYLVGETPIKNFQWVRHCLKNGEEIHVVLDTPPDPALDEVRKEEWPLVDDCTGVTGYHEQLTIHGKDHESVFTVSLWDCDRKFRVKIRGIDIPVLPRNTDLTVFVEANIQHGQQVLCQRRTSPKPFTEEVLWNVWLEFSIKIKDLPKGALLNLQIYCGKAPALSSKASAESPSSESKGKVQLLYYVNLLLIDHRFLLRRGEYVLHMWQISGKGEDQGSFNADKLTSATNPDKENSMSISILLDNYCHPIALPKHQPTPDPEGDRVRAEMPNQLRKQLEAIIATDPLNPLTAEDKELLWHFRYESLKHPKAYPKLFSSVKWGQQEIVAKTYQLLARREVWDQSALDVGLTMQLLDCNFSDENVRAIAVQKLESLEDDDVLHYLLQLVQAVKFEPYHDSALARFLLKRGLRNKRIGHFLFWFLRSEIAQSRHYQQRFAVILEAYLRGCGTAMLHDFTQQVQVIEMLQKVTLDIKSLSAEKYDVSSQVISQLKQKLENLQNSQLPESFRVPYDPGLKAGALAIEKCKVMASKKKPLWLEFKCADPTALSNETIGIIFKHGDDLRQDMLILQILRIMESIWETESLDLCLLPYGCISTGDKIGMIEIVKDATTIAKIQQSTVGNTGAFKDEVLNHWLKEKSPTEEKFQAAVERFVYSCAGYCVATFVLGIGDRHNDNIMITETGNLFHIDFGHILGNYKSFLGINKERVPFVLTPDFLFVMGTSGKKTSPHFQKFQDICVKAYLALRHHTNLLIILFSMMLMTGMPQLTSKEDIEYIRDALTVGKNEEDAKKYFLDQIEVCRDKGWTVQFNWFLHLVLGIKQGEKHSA

**Q.** For `C[C@H](Nc1ncnc2nc[nH]c12)c1cc2cccc(Cl)c2c(=O)n1-c1ccccc1` [IPI-145], which PI3Kγ inhibitory percent [1] is on record?
**A.** strongest inhibitory activity

**Q.** Which results are given for `CC(=O)c1c(C)n(-c2ccc(C)cc2)c2ccc(OCC(O)CNCc3ccc(Cl)cc3)cc12` (centres unmarked) [JN-KI3]?
**A.** anti-proliferative activity, U937 [2]: stronger than IPI-145; anti-proliferative activity, K562 ([3]; 72 h, MTT, Fig. 3B/3C): stronger than IPI-145; sensitivity of K562 proliferation ([3]; gradient of concentrations, low concentration, Fig. 3D): significant sensitivity; anti-proliferative activity, RPMI-8226 [4]: stronger than IPI-145; proliferation of hematologic tumor cell lines [5]: decreased in a concentration-dependent manner; IC50 ([6]; read-out: Cell-free inhibitory IC50 PI3Kδ, ATP 25 μM, average of triple tests): > 20 µM; IC50 ([6]; read-out: IC50 PI3Kδ, Table 4): > 20 µM; IC50 ([7]; read-out: Cell-free inhibitory IC50 PI3Kα, ATP 25 μM, average of triple tests): > 20 µM; IC50 ([7]; read-out: IC50 PI3Kα, Table 4): > 20 µM; cleavage level of Caspase-3 and PARP, time course ([8]; RPMI-8226, 20 μM, after 6 h): significantly increased; cleavage levels of PARP and caspase-3 ([8]; RPMI-8226, increasing concentrations, 24 h): obviously increased; cleavage level of Caspase-3 and PARP, time course ([9]; K562, 20 μM, after 6 h): significantly increased; cleavage levels of PARP and caspase-3 ([9]; K562, increasing concentrations, 24 h): obviously increased; phosphorylation level of AKT at both sites, time course ([10]; K562, 20 μM, 0 to 24 h): significantly inhibited; t-AKT, time course ([10]; K562, 20 μM, 0 to 24 h): not markedly affected; AKT phosphorylation at Thr308 and Ser473 ([10]; K562, increasing concentration (2.5-20 μM), 24 h, inhibition even at 2.5 μM): markedly decreased; expression of total AKT (t-AKT) ([10]; K562, increasing concentration, 24 h): not affected; phosphorylation level of AKT at both sites, time course ([11]; RPMI-8226, 20 μM, 0 to 24 h): significantly inhibited; t-AKT, time course ([11]; RPMI-8226, 20 μM, 0 to 24 h): not markedly affected; AKT phosphorylation at Thr308 and Ser473 ([11]; RPMI-8226, increasing concentration (2.5-20 μM), 24 h, inhibition even at 2.5 μM): markedly decreased; expression of total AKT (t-AKT) ([11]; RPMI-8226, increasing concentration, 24 h): not affected; cells occurring apoptosis ([12]; K562, 2.5 μM): 41.2%; cells occurring apoptosis ([12]; K562, 5 μM): 47.5%; cells occurring apoptosis ([12]; K562, 10 μM): 65.7%; cells occurring apoptosis [13]: about 20.43%; IC50 ([14]; read-out: Cell-free inhibitory IC50 PI3Kβ, ATP 25 μM, average of triple tests): > 20 µM; IC50 ([14]; read-out: IC50 PI3Kβ, Table 4): > 20 µM

**Q.** `O=c1cc(N2CCOCC2)oc2c(-c3ccccc3)cccc12` [LY294002, reference compound] was tested. Which IC50 [6] did it give?
**A.** 0.78 µM
